Values of other authors, collected in PMC6328430, “Radiation dosimetry of [^68Ga]PSMA-11 in low-risk prostate cancer patients” (EJNMMI Physics, 2019).

Details: cited from earlier work

For `C[11C](=O)O` [[^11C]Acetate], the Effective dose is listed as 0.0049 mSv/MBq.
